According to US20240360137A1 (Novartis AG, priority 2023, published 2024):

Key:
Assay in all cases: CDKi biochemical assay (TR-FRET, phosphorylation of S780 on RB1 peptide)
[1] = target: CDK2/CyclinE1 (Homo sapiens, UniProt P24941); conditions: CDK2/CyclinE1 100 pM, 1 mM ATP, 60 min at 25° C.
Procedure, shortened: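 CDK2/CyclinE1 (Avi-tag, 100 pM; CDK2 E. coli-expressed) phosphorylated His-MBP-RB1[773-924] (200 nM) at S780 with 1 mM ATP in HEPES pH 7.5/MgCl2/DTT, 60 min at 25° C. After EDTA quench, TR-FRET detection ran 3 h (Eu anti-p-RB S780, SA-APC). Apparent IC50 came from percent activity versus log concentration.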

[2] = target: CDK1/CyclinB1 (Homo sapiens, UniProt P06493); conditions: CDK1/CyclinB1 10 pM, 1 mM ATP, 60 min at 25° C.
Procedure, shortened: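 CDK1/CyclinB1 (10 pM, Avi-tagged, insect-cell expressed) phosphorylated S780 of His-MBP-RB1[773-924] (200 nM) with 1 mM ATP in HEPES pH 7.5, 10 mM MgCl2, 1 mM DTT, 60 min at 25 °C. After EDTA quench, TR-FRET detection (Eu anti-pRB S780, SA-APC) for 3 h; apparent IC50 from percent activity versus log concentration.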

[3] = target: CDK4/cyclinD1 (Homo sapiens, UniProt P11802); conditions: CDK4/cyclinD1 20 pM, 1 mM ATP, 60 min at 25° C.
Procedure, shortened: (§1)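 Avi-tagged, biotinylated CDK4/cyclinD1 (20 pM) or CDK6/cyclinD3 (10 pM) phosphorylates 200 nM His-MBP-RB1[773-924] at S780 with 1 mM ATP in HEPES pH 7.5/MgCl2, 60 min, 25° C. After EDTA quench, Eu anti-pRB(S780)/SA-APC TR-FRET is read after 3 h. Apparent IC50 comes from % activity versus log concentration.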

[4] = target: CDK6/cyclinD3 (Homo sapiens, UniProt Q00534); conditions: CDK6/cyclinD3 10 pM, 1 mM ATP, 60 min at 25° C.
Procedure, shortened: as §1

| IC50 [1] [µM] | IC50 [2] [µM] | IC50 [3] [µM] | IC50 [4] [µM] | Compound |
| --- | --- | --- | --- | --- |
| 0.015 | 1.81 | 4.41 | 7.13 | COCC(F)(F)COc1n[nH]cc1Nc1ncc2c(n1)N([C@@H]1CCC[C@@H](O)C1)C(=O)C21CC1 [Example 44, 2′-((3-(2,2-difluoro-3-methoxypropoxy)-1H-pyrazol-4-yl)amino)-7′-((1R,3R)-3-hydroxycyclohexyl)spiro[cyclopropane-1,5′-pyrrolo[2,3-d]pyrimidin]-6′(7′H)-one] |
| 0.011 | 0.77 | 1.23 | 3.5 | O=C1N([C@@H]2CCC[C@@H](O)C2)c2nc(Nc3c[nH]nc3OCC3(F)CC3)ncc2C12CC2 [Example 45, 2′-((3-((1-fluorocyclopropyl)methoxy)-1H-pyrazol-4-yl)amino)-7′-((1R,3R)-3-hydroxycyclohexyl)spiro[cyclopropane-1,5′-pyrrolo[2,3-d]pyrimidin]-6′(7′H)-one] |
| 0.109 | ≥ 10 | ≥ 10 | ≥ 10 | O=C1N([C@@H]2CCC[C@@H](O)C2)c2nc(Nc3c[nH]nc3OC3CN(CC(F)(F)F)C3)ncc2C12CC2 [Example 46, 7′-((1R,3R)-3-hydroxycyclohexyl)-2′-((3-((1-(2,2,2-trifluoroethyl)azetidin-3-yl)oxy)-1H-pyrazol-4-yl)amino)spiro[cyclopropane-1,5′-pyrrolo[2,3-d]pyrimidin]-6′(7′H)-one] |
| 0.027 | ≥ 10 | 6.38 | 7.55 | O=C1N([C@@H]2CCC[C@@H](O)C2)c2nc(Nc3c[nH]nc3-c3cnn4c3CCC4)ncc2C12CC2 [Example 47, 2′-((3-(5,6-dihydro-4H-pyrrolo[1,2-b]pyrazol-3-yl)-1H-pyrazol-4-yl)amino)-7′-((1R,3R)-3-hydroxycyclohexyl)spiro[cyclopropane-1,5′-pyrrolo[2,3-d]pyrimidin]-6′(7′H)-one] |
| 0.022 | 3.25 | 1.54 | ≥ 10 | O=C1N([C@@H]2CCC[C@@H](O)C2)c2nc(Nc3c[nH]nc3OCC3(F)COC3)ncc2C12CC2 [Example 48, 2′-((3-((3-fluorooxetan-3-yl)methoxy)-1H-pyrazol-4-yl)amino)-7′-((1R,3R)-3-hydroxycyclohexyl)spiro[cyclopropane-1,5′-pyrrolo[2,3-d]pyrimidin]-6′(7′H)-one] |
| 0.015 | 2.64 | 9.77 | ≥ 10 | [2H]C([2H])([2H])Oc1n[nH]cc1Nc1ncc2c(n1)N([C@@H]1CCC[C@@H](O)C1)C(=O)C21CC1 [Example 49, 7′-((1R,3R)-3-hydroxycyclohexyl)-2′-((3-(methoxy-d3)-1H-pyrazol-4-yl)amino)spiro[cyclopropane-1,5′-pyrrolo[2,3-d]pyrimidin]-6′(7′H)-one] |
| 0.125 | ≥ 10 | ≥ 10 | ≥ 10 | CN1C[C@@H](F)[C@H](Oc2n[nH]cc2Nc2ncc3c(n2)N([C@@H]2CCC[C@@H](O)C2)C(=O)C32CC2)C1 [Example 50, 2′-((3-(((3R,4R)-4-fluoro-1-methylpyrrolidin-3-yl)oxy)-1H-pyrazol-4-yl)amino)-7′-((1R,3R)-3-hydroxycyclohexyl)spiro[cyclopropane-1,5′-pyrrolo[2,3-d]pyrimidin]-6′(7′H)-one] |
| 0.119 | ≥ 10 | ≥ 10 | ≥ 10 | CN1C[C@H](Oc2n[nH]cc2Nc2ncc3c(n2)N([C@@H]2CCC[C@@H](O)C2)C(=O)C32CC2)[C@@H](F)C1 [Example 51, 2′-((3-(((3S,4S)-4-fluoro-1-methylpyrrolidin-3-yl)oxy)-1H-pyrazol-4-yl)amino)-7′-((1R,3R)-3-hydroxycyclohexyl)spiro[cyclopropane-1,5′-pyrrolo[2,3-d]pyrimidin]-6′(7′H)-one] |
| 0.186 | ≥ 10 | ≥ 10 | ≥ 10 | CC(=O)N1CC2(CC(COc3n[nH]cc3Nc3ncc4c(n3)N([C@@H]3CCC[C@@H](O)C3)C(=O)C43CC3)C2)C1 [Example 53, 2′-((3-((2-acetyl-2-azaspiro[3.3]heptan-6-yl)methoxy)-1H-pyrazol-4-yl)amino)-7′-((1R,3R)-3-hydroxycyclohexyl)spiro[cyclopropane-1,5′-pyrrolo[2,3-d]pyrimidin]-6′(7′H)-one] |
| 0.134 | ≥ 10 | ≥ 10 | ≥ 10 | O=C1N([C@@H]2CCC[C@@H](O)C2)c2nc(Nc3c[nH]nc3OCC3CC4(COC4)C3)ncc2C12CC2 [Example 54, 2′-((3-((2-oxaspiro[3.3]heptan-6-yl)methoxy)-1H-pyrazol-4-yl)amino)-7′-((1R,3R)-3-hydroxycyclohexyl)spiro[cyclopropane-1,5′-pyrrolo[2,3-d]pyrimidin]-6′(7′H)-one] |
| 0.011 | 1.43 | 8.5 | ≥ 10 | O=C1N([C@@H]2CCC[C@@H](O)C2)c2nc(Nc3c[nH]nc3OC3CC3)ncc2C12CC2 [Example 55] |
| 0.01 | 0.8 | 3.13 | 6.28 | O=C1N([C@@H]2CCC[C@@H](O)C2)c2nc(Nc3c[nH]nc3OCC(F)(F)F)ncc2C12CC2 [Example 56, 7′-((1R,3R)-3-hydroxycyclohexyl)-2′-((3-(2,2,2-trifluoroethoxy)-1H-pyrazol-4-yl)amino)spiro[cyclopropane-1,5′-pyrrolo[2,3-d]pyrimidin]-6′(7′H)-one] |
| 0.015 | 2.04 | 7.9 | ≥ 10 | Cn1ncc(-c2n[nH]cc2Nc2ncc3c(n2)N([C@@H]2CCC[C@@H](O)C2)C(=O)C32CC2)c1Cl [Example 57, 2′-((5′-chloro-1′-methyl-1H,1′H-[3,4′-bipyrazol]-4-yl)amino)-7-((1R,3R)-3-hydroxycyclohexyl)spiro[cyclopropane-1,5′-pyrrolo[2,3-d]pyrimidin]-6′(7′H)-one] |
| 0.016 | 3.54 | 9.5 | ≥ 10 | CC#Cc1n[nH]cc1Nc1ncc2c(n1)N([C@@H]1CCC[C@@H](O)C1)C(=O)C21CC1 [Example 58, 7′-((1R,3R)-3-hydroxycyclohexyl)-2′-((3-(prop-1-yn-1-yl)-1H-pyrazol-4-yl)amino)spiro[cyclopropane-1,5′-pyrrolo[2,3-d]pyrimidin]-6′(7′H)-one] |
| 0.251 | ≥ 10 | ≥ 10 | ≥ 10 | O=C1N([C@@H]2CCC[C@@H](O)C2)c2nc(Nc3c[nH]nc3-c3ccncc3)ncc2C12CC2 [Example 59, 7′-((1R,3R)-3-hydroxycyclohexyl)-2′-((3-(pyridin-4-yl)-1H-pyrazol-4-yl)amino)spiro[cyclopropane-1,5′-pyrrolo[2,3-d]pyrimidin]-6′(7′H)-one] |
| 0.162 | ≥ 10 | ≥ 10 | ≥ 10 | O=C1N([C@@H]2CCC[C@@H](O)C2)c2nc(Nc3c[nH]nc3-c3ccccn3)ncc2C12CC2 [Example 60, 7′-((1R,3R)-3-hydroxycyclohexyl)-2′-((3-(pyridin-2-yl)-1H-pyrazol-4-yl)amino)spiro[cyclopropane-1,5′-pyrrolo[2,3-d]pyrimidin]-6′(7′H)-one] |
| 0.046 | ≥ 10 | 8.65 | 9.19 | O=C1N([C@@H]2CCC[C@@H](O)C2)c2nc(Nc3c[nH]nc3-c3cccnc3)ncc2C12CC2 [Example 61, 7′-((1R,3R)-3-hydroxycyclohexyl)-2′-((3-(pyridin-3-yl)-1H-pyrazol-4-yl)amino)spiro[cyclopropane-1,5′-pyrrolo[2,3-d]pyrimidin]-6′(7′H)-one] |
| 0.017 | 4.23 | 2.3 | 1.83 | Cc1c(-c2n[nH]cc2Nc2ncc3c(n2)N([C@@H]2CCC[C@@H](O)C2)C(=O)C32CC2)cnn1C(F)F [Example 62] |
| 0.043 | 3.69 | ≥ 10 | ≥ 10 | O=C1N([C@@H]2CCC[C@@H](O)C2)c2nc(Nc3c[nH]nc3O[C@@H]3CCOC3)ncc2C12CC2 [Example 63, 7′-((1R,3R)-3-hydroxycyclohexyl)-2′-((3-(((R)-tetrahydrofuran-3-yl)oxy)-1H-pyrazol-4-yl)amino)spiro[cyclopropane-1,5′-pyrrolo[2,3-d]pyrimidin]-6′(7′H)-one] |
| 0.012 | 2.19 | 4.7 | 6.49 | O=C1N([C@@H]2CCC[C@@H](O)C2)c2nc(Nc3c[nH]nc3-c3cnn4ccncc34)ncc2C12CC2 [Example 64, 7′-((1R,3R)-3-hydroxycyclohexyl)-2′-((3-(pyrazolo[1,5-a]pyrazin-3-yl)-1H-pyrazol-4-yl)amino)spiro[cyclopropane-1,5′-pyrrolo[2,3-d]pyrimidin]-6′(7′H)-one] |
